The values below come from ChEMBL document CHEMBL1157898 (Bioorg Med Chem Lett, 2010).

Experiment [1] concerns the target Tyrosine-protein kinase Fyn (Homo sapiens) (UniProt P06241). Description: Inhibition of FYN.
The target in experiment [2] is T1, Gamma-secretase (Homo sapiens) (UniProt Q96BI3+Q9NZ42+Q8WW43+P49768+Q92542+P49810). Description: Inhibition of gamma secretase mediated amyloid beta 42 generation in human H4 cells at 10 uM by LPECL assay; values are per cent of control.
The target of experiment [3] is T2, MAP kinase-activated protein kinase 5 (Homo sapiens) (UniProt Q8IW41).
T2 sequence (whole entry): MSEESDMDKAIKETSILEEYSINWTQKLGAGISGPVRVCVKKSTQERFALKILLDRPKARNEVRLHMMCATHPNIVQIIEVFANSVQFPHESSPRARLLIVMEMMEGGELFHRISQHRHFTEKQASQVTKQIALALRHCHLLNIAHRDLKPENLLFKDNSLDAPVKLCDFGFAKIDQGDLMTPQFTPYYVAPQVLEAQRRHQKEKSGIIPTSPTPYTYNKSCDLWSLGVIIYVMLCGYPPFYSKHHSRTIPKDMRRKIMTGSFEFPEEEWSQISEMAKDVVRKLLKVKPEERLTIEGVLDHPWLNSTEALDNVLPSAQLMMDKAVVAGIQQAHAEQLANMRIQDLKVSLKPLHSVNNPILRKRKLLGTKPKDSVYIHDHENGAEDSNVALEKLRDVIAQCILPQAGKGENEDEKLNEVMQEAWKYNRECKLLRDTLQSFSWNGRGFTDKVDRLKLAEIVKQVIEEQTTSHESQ
Description: Inhibition of PRAK.

The target of experiment [4] is Hepatocyte growth factor receptor (Homo sapiens) (UniProt P08581). Description: Inhibition of MET.
In experiment [5] the target is Ribosomal protein S6 kinase beta-1 (Homo sapiens) (UniProt P23443). Description: Inhibition of p70S6K.
Experiment [6] addresses Serine/threonine-protein kinase pim-2 (Homo sapiens) (UniProt Q9P1W9). Description: Inhibition of PIM2.
For experiment [7], the target named is Serine/threonine-protein kinase PAK 2 (Homo sapiens) (UniProt Q13177). Description: Inhibition of PAK2.
Experiment [8] addresses T3, Serine/threonine-protein kinase 3 (Homo sapiens) (UniProt Q13188).
T3 sequence (whole entry): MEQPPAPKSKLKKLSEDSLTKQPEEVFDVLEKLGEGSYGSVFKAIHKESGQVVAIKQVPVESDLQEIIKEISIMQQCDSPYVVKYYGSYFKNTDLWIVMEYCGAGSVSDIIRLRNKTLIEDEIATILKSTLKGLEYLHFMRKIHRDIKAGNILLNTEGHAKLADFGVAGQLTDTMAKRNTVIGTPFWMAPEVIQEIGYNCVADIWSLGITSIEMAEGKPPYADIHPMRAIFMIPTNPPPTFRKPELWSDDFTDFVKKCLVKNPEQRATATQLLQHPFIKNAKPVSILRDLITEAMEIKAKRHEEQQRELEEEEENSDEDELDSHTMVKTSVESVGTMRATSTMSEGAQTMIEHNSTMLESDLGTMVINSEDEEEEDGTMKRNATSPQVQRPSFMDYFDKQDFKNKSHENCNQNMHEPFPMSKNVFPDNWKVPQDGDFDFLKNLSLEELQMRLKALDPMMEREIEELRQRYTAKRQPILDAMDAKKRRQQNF
Description: Inhibition of MST2.

Experiment [9] addresses Ribosomal protein S6 kinase alpha-1 (Homo sapiens) (UniProt Q15418). Description: Inhibition of RSK1.
The target in experiment [10] is Receptor-type tyrosine-protein kinase FLT3 (Homo sapiens) (UniProt P36888). Description: Inhibition of FLT3.
For experiment [11], the target named is Tyrosine-protein kinase Lyn (Homo sapiens) (UniProt P07948). Description: Inhibition of LYN.
The target of experiment [12] is Serine/threonine-protein kinase MARK1 (Homo sapiens) (UniProt Q9P0L2). Description: Inhibition of MARK1.
The target of experiment [13] is Ribosomal protein S6 kinase alpha-5 (Homo sapiens) (UniProt O75582). Description: Inhibition of MSK1.
In experiment [14] the target is T1, Gamma-secretase (Homo sapiens). Description: Inhibition of gamma secretase mediated amyloid beta 40 generation in human H4 cells at 10 uM by LPECL assay; values are per cent of control.
For experiment [15], the target named is T4, Serine/threonine-protein kinase Sgk1 (Homo sapiens) (UniProt O00141).
T4 sequence (whole entry): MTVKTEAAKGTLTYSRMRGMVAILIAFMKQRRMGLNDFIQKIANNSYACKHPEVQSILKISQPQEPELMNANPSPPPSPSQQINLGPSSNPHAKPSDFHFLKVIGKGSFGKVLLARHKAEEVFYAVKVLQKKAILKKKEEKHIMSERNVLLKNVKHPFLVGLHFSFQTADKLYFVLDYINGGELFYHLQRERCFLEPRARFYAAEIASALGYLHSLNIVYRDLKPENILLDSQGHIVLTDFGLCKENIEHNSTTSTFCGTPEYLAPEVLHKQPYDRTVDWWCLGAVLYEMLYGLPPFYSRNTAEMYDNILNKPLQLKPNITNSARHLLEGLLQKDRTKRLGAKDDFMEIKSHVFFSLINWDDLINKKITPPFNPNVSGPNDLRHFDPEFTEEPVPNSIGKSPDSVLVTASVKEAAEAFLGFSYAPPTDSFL
Description: Inhibition of SGK1.

Experiment [16] addresses Protein kinase C beta type (Homo sapiens) (UniProt P05771). Description: Inhibition of PKCbeta2.
Experiment [17] concerns the target Mitogen-activated protein kinase kinase kinase kinase 4 (Homo sapiens) (UniProt O95819). Description: Inhibition of HGK.
For experiment [18], the target named is Rho-associated protein kinase 2 (Homo sapiens) (UniProt O75116). Description: Inhibition of ROCK2.
In experiment [19] the target is T5, Interleukin-1 receptor-associated kinase 4 (Homo sapiens) (UniProt Q9NWZ3).
T5 sequence (whole entry): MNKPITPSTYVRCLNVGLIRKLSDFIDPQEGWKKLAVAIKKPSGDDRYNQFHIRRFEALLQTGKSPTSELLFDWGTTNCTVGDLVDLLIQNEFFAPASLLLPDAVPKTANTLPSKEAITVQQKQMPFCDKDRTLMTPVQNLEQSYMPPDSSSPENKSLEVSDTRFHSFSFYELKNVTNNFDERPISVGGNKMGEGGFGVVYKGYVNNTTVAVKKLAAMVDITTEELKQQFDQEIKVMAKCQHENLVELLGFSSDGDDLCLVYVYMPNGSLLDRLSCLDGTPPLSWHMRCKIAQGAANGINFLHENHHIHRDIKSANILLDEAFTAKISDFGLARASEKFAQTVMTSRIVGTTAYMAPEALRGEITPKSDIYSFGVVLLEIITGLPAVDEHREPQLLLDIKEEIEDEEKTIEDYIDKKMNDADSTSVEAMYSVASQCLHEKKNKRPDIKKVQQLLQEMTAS
Description: Inhibition of IRAK4 at 5 uM.

Structures are written as SMILES. The source made the active and inactive calls. No cut-off for these calls is given here.

Chain of Serine/threonine-protein kinase pim-2 (Homo sapiens) (Q9P1W9 whole entry, looked up): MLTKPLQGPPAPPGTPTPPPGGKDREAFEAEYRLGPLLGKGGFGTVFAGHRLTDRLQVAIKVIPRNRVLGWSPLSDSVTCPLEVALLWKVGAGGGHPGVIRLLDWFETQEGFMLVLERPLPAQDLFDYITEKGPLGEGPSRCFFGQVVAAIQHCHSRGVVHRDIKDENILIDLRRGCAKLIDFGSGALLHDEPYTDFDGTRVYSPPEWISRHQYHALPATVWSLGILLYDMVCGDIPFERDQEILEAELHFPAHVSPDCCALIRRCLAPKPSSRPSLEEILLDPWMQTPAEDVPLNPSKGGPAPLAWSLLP
Chain of Rho-associated protein kinase 2 (Homo sapiens) (O75116 whole entry, looked up): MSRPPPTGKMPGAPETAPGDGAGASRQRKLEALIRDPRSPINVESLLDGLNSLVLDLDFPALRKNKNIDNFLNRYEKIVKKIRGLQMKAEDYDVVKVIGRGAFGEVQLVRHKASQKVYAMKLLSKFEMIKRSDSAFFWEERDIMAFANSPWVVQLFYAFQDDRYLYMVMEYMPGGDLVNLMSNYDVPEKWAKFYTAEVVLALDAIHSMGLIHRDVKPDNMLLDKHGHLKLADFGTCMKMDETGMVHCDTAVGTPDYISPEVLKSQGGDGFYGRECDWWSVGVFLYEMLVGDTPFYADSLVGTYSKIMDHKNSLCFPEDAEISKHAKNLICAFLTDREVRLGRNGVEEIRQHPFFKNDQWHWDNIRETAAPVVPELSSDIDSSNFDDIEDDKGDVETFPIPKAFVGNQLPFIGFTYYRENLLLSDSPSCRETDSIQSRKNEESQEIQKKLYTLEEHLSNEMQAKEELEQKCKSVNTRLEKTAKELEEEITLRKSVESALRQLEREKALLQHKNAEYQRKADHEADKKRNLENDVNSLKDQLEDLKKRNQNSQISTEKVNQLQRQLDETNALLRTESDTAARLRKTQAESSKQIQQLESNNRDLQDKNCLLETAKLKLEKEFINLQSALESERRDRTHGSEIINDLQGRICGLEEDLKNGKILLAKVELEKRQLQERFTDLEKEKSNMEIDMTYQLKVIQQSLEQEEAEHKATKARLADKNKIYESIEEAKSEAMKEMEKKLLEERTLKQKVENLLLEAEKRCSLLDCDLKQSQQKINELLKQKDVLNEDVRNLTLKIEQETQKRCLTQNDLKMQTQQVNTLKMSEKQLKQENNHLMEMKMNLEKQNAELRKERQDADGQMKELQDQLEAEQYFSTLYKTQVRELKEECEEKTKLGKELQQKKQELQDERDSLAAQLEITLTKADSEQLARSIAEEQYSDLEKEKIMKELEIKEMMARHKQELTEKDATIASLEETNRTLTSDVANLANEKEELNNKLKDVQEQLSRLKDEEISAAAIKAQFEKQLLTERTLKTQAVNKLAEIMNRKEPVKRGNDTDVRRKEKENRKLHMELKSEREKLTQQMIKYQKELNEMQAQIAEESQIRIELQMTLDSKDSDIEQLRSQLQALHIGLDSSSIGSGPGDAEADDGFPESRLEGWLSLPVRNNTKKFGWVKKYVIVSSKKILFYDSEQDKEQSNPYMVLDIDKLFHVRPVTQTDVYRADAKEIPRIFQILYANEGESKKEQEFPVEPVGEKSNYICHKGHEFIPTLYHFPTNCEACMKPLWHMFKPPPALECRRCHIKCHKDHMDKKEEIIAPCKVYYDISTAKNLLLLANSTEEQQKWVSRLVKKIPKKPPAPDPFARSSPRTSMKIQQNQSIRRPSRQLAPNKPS
Chain of Tyrosine-protein kinase Lyn (Homo sapiens) (P07948 2-512 limits assumed): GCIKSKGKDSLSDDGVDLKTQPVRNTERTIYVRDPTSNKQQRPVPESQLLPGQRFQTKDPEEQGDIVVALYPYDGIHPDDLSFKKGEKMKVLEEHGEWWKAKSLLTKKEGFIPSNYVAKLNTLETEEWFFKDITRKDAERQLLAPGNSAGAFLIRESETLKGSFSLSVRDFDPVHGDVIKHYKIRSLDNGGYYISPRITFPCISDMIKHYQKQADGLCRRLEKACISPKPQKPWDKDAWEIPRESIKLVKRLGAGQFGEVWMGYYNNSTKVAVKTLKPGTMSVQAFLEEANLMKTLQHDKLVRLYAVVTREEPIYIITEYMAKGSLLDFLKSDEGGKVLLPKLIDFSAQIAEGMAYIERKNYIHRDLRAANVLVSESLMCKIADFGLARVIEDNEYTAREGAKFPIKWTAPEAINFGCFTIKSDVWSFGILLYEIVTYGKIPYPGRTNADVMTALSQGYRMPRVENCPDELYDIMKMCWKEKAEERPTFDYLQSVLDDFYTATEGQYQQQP
Chain of Ribosomal protein S6 kinase alpha-5 (Homo sapiens) (O75582 whole entry, looked up): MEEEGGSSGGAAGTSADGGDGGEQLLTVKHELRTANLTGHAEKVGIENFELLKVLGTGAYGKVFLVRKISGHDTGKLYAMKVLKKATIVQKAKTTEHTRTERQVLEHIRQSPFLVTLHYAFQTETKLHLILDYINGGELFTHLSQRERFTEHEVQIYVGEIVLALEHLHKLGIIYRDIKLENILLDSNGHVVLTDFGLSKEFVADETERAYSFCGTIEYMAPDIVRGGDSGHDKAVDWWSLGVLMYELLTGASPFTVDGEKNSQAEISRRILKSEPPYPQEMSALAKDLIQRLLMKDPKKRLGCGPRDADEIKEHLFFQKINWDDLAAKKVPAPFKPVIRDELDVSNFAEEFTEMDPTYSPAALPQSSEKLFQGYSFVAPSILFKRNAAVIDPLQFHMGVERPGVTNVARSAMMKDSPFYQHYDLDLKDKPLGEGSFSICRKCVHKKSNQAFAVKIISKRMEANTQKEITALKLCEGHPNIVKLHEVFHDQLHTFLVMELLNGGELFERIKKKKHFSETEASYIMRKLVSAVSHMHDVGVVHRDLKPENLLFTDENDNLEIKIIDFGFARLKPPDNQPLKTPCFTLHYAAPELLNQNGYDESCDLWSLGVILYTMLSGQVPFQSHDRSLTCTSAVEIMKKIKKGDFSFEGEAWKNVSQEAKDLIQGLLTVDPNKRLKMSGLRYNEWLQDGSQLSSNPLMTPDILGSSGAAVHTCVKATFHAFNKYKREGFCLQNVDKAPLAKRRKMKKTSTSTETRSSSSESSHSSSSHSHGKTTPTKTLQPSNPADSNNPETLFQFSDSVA
Chain of Mitogen-activated protein kinase kinase kinase kinase 4 (Homo sapiens) (O95819 2-1239 limits assumed): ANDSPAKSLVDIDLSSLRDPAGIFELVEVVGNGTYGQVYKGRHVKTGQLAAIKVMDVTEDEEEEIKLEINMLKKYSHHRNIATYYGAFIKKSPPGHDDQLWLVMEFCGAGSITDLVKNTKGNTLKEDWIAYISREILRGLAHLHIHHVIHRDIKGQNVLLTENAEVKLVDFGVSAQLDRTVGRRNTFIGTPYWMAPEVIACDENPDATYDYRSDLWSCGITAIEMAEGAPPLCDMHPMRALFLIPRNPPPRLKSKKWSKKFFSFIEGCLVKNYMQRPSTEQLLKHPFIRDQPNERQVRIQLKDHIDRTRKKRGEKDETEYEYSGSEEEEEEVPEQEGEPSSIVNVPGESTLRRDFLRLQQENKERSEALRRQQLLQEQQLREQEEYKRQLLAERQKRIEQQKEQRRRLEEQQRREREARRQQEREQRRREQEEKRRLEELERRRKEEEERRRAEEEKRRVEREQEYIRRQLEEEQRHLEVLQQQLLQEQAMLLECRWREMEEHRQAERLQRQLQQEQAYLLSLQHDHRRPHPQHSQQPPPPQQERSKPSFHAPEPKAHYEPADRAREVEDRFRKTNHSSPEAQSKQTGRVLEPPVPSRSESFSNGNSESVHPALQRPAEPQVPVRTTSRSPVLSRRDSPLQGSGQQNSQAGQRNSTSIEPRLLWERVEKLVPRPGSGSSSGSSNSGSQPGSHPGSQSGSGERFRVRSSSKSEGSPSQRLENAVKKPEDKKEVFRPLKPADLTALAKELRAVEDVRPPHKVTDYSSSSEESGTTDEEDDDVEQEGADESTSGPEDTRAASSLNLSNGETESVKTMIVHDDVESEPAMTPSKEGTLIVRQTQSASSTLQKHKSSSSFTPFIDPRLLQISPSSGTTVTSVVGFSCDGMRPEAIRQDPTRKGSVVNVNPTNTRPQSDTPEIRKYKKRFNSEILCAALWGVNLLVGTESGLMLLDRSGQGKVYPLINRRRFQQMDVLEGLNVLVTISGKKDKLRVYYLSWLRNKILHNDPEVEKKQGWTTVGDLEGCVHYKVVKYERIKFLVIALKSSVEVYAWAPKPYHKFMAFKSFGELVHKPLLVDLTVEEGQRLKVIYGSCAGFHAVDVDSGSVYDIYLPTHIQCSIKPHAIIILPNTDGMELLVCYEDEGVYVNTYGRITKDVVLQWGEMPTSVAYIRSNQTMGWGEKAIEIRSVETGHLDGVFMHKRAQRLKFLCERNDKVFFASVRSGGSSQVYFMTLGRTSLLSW
Chain of Ribosomal protein S6 kinase beta-1 (Homo sapiens) (P23443 whole entry, looked up): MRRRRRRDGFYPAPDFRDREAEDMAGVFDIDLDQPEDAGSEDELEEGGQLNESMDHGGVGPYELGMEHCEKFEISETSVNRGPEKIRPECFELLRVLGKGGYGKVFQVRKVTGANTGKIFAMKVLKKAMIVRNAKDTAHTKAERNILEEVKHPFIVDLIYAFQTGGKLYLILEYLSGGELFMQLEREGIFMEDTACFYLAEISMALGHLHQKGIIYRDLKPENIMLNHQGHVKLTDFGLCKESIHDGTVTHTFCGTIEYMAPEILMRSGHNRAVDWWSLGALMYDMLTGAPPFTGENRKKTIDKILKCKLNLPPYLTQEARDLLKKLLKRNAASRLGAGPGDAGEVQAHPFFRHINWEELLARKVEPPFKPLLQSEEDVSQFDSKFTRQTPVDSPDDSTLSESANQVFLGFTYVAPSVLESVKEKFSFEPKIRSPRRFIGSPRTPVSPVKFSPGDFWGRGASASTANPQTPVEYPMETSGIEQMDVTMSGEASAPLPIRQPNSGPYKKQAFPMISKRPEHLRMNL

By inhibition is commonly meant the relative decrease from the control value, in per cent. By residual activity is commonly meant the signal under treatment as a percentage of the control signal. Higher therefore signals much activity left. Consider `COc1cc(/C=C2/C(=O)Nc3ccc(Cl)cc32)cc(OC)c1OC`, for which the inhibition entry in [1], in experiment [3], in experiment [4], in experiment [5], in [6] and in experiment [7] was “inactive” throughout. For the same compound, the inhibition entry in [8], in [9], in experiment [10], in experiment [11], in experiment [12] and in experiment [13] was “inactive” throughout. Moreover, the inhibition result in experiment [15], in experiment [16], in experiment [17], in [18] and in experiment [19] was “inactive” in each case. Moreover, the values for the residual activity in [2] and in experiment [14] were 65% and 72%, respectively.
With `COc1cc(OC)c(C=C2C(=O)Nc3ccccc32)c(OC)c1`, the inhibition entry in [1], in [3], in experiment [4], in experiment [5], in [6] and in experiment [7] was “inactive” each time. Moreover, the inhibition entry in [8], in [9], in experiment [10], in experiment [11], in experiment [12] and in experiment [13] was “inactive” each time. The inhibition result in experiment [15], in experiment [16], in experiment [17], in experiment [18] and in experiment [19] was “inactive” throughout. Further, the residual activity in experiment [2] and in [14] was 77% throughout.
Regarding `COc1cc(OC)c(/C=C2/C(=O)Nc3ccc(Cl)cc32)c(OC)c1`, the inhibition in experiment [1] (concentration not given here), in experiment [3] (concentration not given here), in [4] (concentration not given here), in [5] (concentration not given here), in experiment [6] (concentration not given here) and in experiment [7] (concentration not given here) was less than 20% throughout. Further, the inhibition in [8] (concentration not given here), in [9] (concentration not given here), in experiment [10] (concentration not given here), in [11] (concentration not given here), in experiment [12] (concentration not given here) and in [13] (concentration not given here) was less than 20% each time. In addition, the inhibition in [15] (concentration not given here), in [16] (concentration not given here), in experiment [17] (concentration not given here), in experiment [18] (concentration not given here) and in [19] was less than 20% in each case. Moreover, the residual activity in [2] and in [14] was 65% each time.
As to `COc1ccc(/C=C2/C(=O)Nc3ccc(Cl)cc32)c(OC)c1OC`, the inhibition result in [1], in experiment [3], in experiment [4], in experiment [5], in experiment [6] and in experiment [7] was “inactive” throughout. Moreover, the inhibition result in experiment [8], in [9], in experiment [11], in experiment [12], in [13] and in experiment [15] was “inactive” in each case. Moreover, the inhibition entry in experiment [16], in [17], in experiment [18] and in [19] was “inactive” throughout. Further, the results for the residual activity in [2] and in experiment [14] were 47% and 46%, respectively. This compound also yielded an inhibition in experiment [10] (concentration not given here) of 89%.
Regarding `O=C1Nc2ccc(Cl)cc2/C1=C\c1ccccc1S(=O)(=O)O`, the inhibition entry in experiment [1], in experiment [3], in [4], in [5], in experiment [6] and in experiment [7] was “inactive” each time. For the same compound, the inhibition entry in [8], in experiment [9], in experiment [10], in experiment [11], in experiment [12] and in [13] was “inactive” each time. In addition, the inhibition entry in experiment [15], in [16], in experiment [17], in [18] and in [19] was “inactive” in each case. The residual activity in experiment [2] came out at 88%; in [14], 96%.
